Data reported in patent publication US5861405A, “S-substituted 1,3,7-trialkyl-xanthine derivatives” (priority 1994, dated 1999).
Read-outs that look alike come from different tables or passages of the source.

How the values were obtained:
[1] = tested on: locomotor activity in mice; assay: Locomotor activity in mice, open field (Digiscan activity monitor); type: in vivo, mouse
Protocol: Adult male mice of the NIH (Swiss) strain weighing 25-30 g were housed in groups of 10 animals per cage with a light-dark cycle of 12:12 h. The animals were given free access to standard pellet food and water and were acclimatized to laboratory conditions for 24 h prior to testing. Each animal was used only once in the activity monitor.
Locomotor activity of individual animals was studied in an open field using a Digiscan activity monitor (Omnitech Electronics Inc., Columbus, Ohio) equipped with an IBM-compatible computer. The computer-tabulated measurements represent multivariate locomotor analysis with specific measures, such as simultaneous measurements of ambulatory, rearing, stereotypical, and rotational behaviors. Data were collected in the morning, for three consecutive intervals of 10 minutes each, and analyzed separately and as a group. Statistical analysis was performed using the Student t test. […] Drugs were administered i.p. in a volume corresponding to 5 ml/kg body weight. Where applicable, the antagonist was injected 10 minutes before the agonist. ED50 values were determined using regression analysis on the InPlot software (GraphPAD, San Diego, Calif.).

[2] = target: T1, rat A1 cortical receptors (Rattus norvegicus, UniProt P25099); assay: Radioligand binding, [3H]N6-phenylisopropyladenosine ([3H]PIA), rat cortical A1 receptors; settings: for Ki: vs [3H]PIA (1 nM), read-out: Ki (A1); for inhibition at 10 µM: 1.5 h, at 10^-5, vs [3H]PIA, read-out: Percent displacement of specific binding (A1)
T1 construct: Rat cerebral cortical membranes and striatal membranes were prepared; from tissue; host or cells: rat cerebral cortex membranes
T1 sequence (P25099 1-326): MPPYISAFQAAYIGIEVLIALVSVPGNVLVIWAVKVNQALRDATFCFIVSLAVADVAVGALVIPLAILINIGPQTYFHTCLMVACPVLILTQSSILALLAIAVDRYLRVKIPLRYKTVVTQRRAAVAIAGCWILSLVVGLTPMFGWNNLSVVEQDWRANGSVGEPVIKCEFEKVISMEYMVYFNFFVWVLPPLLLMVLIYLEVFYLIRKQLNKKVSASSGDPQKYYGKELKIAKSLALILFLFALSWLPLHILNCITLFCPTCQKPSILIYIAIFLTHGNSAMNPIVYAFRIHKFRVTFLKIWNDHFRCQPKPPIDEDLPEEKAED
Protocol: (§1) The 1,3,7-trialkyl-8-substituted xanthine compounds of the present invention were tested in a radioligand binding assay for affinity at adenosine receptors in rat brain membranes.
The final concentration of DMSO in the assay medium was generally 2%.
Membranes (~100 μg protein per tube) were incubated for 1.5 h at 37° C. in a total volume of 0.5 ml of 50 mM Tris hydrochloride, at pH 7.4. Test drugs were dissolved in DMSO and added in 10 μl aliquots, resulting in a final DMSO concentration of 2%. Bound and free radioligand were separated by addition of 3 ml of a buffer containing 50 mM Tris hydrochloride, pH 7.4, at 5° C., followed by vacuum filtration using a Brandel Cell Harvester (Brandel, Gaithersburg, Md.) and a Whatman GF/B glass fiber filter with additional washes totaling 9 ml of buffer. Non-specific binding was determined with 10 μM 2-chloroadenosine.
(§2) At least six different concentrations spanning three orders of magnitude, adjusted appropriately for the IC50 of each compound, were used.

[3] = target: rat striatal A2a receptors (Rattus norvegicus, UniProt P30543); assay: Radioligand binding, [3H]CGS 21680, rat striatal A2a receptors; set-up: Rat cerebral cortical membranes and striatal membranes were prepared; from tissue; host or cells: rat striatal membranes
Protocol: as §1
The stock solutions were diluted with DMSO to a concentration of ≥0.1 mM prior to adding to the aqueous medium. The final concentration of DMSO in the assay medium was generally 2%.
Test drugs were dissolved in DMSO and added in 10 μl aliquots, resulting in a final DMSO concentration of 2%. Non-specific binding was defined using 20 μM 2-chloroadenosine. Filtration was carried out using a Brandel Cell Harvester, as above, using Tris HCl/MgCl2 as the washing buffer.
as §2

[4] = target: A2 receptors, rat striatum; settings: vs [3H]NECA in rat striatum; read-out: Ki (A2a), Shimada et al.; cited from earlier work
[5] = Table I, vs [3H]CGS21680 (5 nM), rat striatal A2 receptors, read-out: Ki (A2a)
[6] = vs [3H]CGS 21680, read-out: Ki value / affinity at A2 receptors
[7] = Table IV, vs [3H]CGS21680 (5 nM), read-out: Ki (A2)
[8] = Table III, vs [3H]CGS21680 (5 nM), read-out: Ki (A2)

Sequence of rat striatal A2a receptors (P30543 whole entry): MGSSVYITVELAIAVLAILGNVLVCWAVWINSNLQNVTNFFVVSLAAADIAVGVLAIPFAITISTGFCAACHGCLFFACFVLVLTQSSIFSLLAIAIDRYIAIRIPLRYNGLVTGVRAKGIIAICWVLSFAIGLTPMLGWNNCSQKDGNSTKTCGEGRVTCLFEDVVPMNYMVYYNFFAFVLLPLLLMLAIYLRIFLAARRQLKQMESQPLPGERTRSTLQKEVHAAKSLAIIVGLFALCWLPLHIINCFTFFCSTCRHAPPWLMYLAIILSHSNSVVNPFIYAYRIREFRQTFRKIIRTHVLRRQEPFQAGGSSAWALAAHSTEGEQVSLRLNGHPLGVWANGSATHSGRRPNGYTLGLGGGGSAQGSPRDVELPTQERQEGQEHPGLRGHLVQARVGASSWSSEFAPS

SMILES	Ki ([2]; Table I, rat A1 receptors)	Ki [3, 5]	A1/A2a ratio ([3]; Table I, ratio of Ki values)	further results
OC[C@H]1O[C@@H](n2cnc3c(NC4CCCCC4)ncnc32)[C@H](O)[C@@H]1O [CHA, N^6 -cyclohexyladenosine, reference compound]				total distance traveled ([1]; CHA control 100 μg/kg i.p., n=9): 2090±438 cm/30 min; ED50 ([1]; Mus musculus, ip, CHA, i.p., read-out: ED50 for locomotor depression): 0.1 mg/kg
CCCn1c(=O)c2[nH]c(C3CCCC3)nc2n(CCC)c1=O [CPX, 8-cyclopentyl-1,3-dipropyl-xanthine, reference compound]				locomotor stimulation, in words ([1]; mice): minimal depressant effect on locomotor activity
COc1ccc(/C=C/c2nc3c([nH]2)c(=O)n(C)c(=O)n3C)cc1OC [Compound 32a, 1,3-Dimethyl-8-(3,4-dimethoxystyryl)xanthine]	5340 nM	1100 nM		A1/A2a ratio [3]: 48
COc1ccc(/C=C/c2nc3c(c(=O)n(C)c(=O)n3C)n2C)cc1OC [Compound 32b, 1,3,7-Trimethyl-8-(3,4-dimethoxystyryl)xanthine]	13800 nM	197 ± 33 nM		A1/A2a ratio ([3]; rat, brain membranes): 70
COc1cc(/C=C/c2nc3c([nH]2)c(=O)n(C)c(=O)n3C)cc(OC)c1 [Compound 33a, 1,3-Dimethyl-8-(3,5-dimethoxystyryl)xanthine]	3040 nM	120 ± 36 nM	25	
COc1cc(/C=C/c2nc3c(c(=O)n(C)c(=O)n3C)n2C)cc(OC)c1 [Compound 33b, 1,3,7-Trimethyl-8-(3,5-dimethoxystyryl)xanthine]		75.3 ± 29.1 nM	> 200	inhibition at 10 µM [2]: 12.5 ± 6.3%
Cn1c(=O)c2[nH]c(/C=C/c3cc(F)cc(F)c3)nc2n(C)c1=O [Compound 34a]	2330 nM	366 ± 77 nM	6.4	
Cn1c(=O)c2c(nc(/C=C/c3cc(F)cc(F)c3)n2C)n(C)c1=O [Compound 34b]	14800 nM	65 ± 9 nM	230	
COc1cc(/C=C/c2nc3c(c(=O)n(C)c(=O)n3C)n2C)cc(OC)c1O [Compound 35]	8700 nM	450 ± 66 nM	19	potency or selectivity in binding, in words ([3]; rat A1 and A2 binding): moderately selective
COc1cc(/C=C/c2nc3c(c(=O)n(C)c(=O)n3C)n2C)cc(OC)c1OC(C)=O [Compound 36]	6330 nM	68 ± 22 nM	93	A2-selectivity ([3]; rat brain binding, this study): 93 fold
COc1cc(/C=C/c2nc3c(c(=O)n(C)c(=O)n3C)n2C)cc(OC)c1OCc1ccccc1 [Compound 37, 1,3,7-Trimethyl-8-(3,5-dimethoxy-4-benzyloxystyryl) xanthine]	4120 nM	139 ± 7 nM	30	
COc1cc(/C=C/c2nc3c(c(=O)n(C)c(=O)n3C)n2C)cc(OC)c1OCCCCN [Compound 38, 1,3,7-Trimethyl-8-[3,5-dimethoxy-4-[4-aminobutyloxy]styryl]xanthine]	6170 nM	173 ± 43 nM	36	
COc1cc(/C=C/c2nc3c(c(=O)n(C)c(=O)n3C)n2C)cc(OC)c1OCCCCNC(=O)OC(C)(C)C [Compound 39, 1,3,7-Trimethyl-8-[3,5-dimethoxy-4-[4-(tert-butyloxycarbonylamino)butyloxy]styryl]xanthine]	11000 nM	265 ± 105 nM	42	
COc1cc(/C=C/c2nc3c(c(=O)n(C)c(=O)n3C)n2C)cc(OC)c1OC/C=C/CN [Compound 40]	6280 nM	228 ± 20 nM	28	
COc1cc(/C=C/c2nc3c(c(=O)n(C)c(=O)n3C)n2C)cc(OC)c1OC/C=C/CNC(C)=O [Compound 41]		216 ± 40 nM	> 50	inhibition at 10 µM [2]: 17 ± 7%
COc1cc(/C=C/c2nc3c(c(=O)n(C)c(=O)n3C)n2C)cc(OC)c1OC/C=C/CNC(=O)OC(C)(C)C [Compound 42]		353 ± 62 nM	> 40	inhibition at 10 µM [2]: 11 ± 5%
COc1ccc(/C=C/c2nc3c([nH]2)c(=O)n(C)c(=O)n3C)c(OC)c1OC [Compound 43a]		1610 nM	> 5	inhibition at 10 µM [2]: 26 ± 10%
COc1ccc(/C=C/c2nc3c(c(=O)n(C)c(=O)n3C)n2C)c(OC)c1OC [Compound 43b]	6920 nM	206 ± 81 nM	34	
CCn1c(/C=C/c2cc(OC)c(OC)c(OC)c2)nc2c1c(=O)n(C)c(=O)n2C [Compound 44c, 7-Ethyl-1,3-trimethyl-8-[3,4,5-trimethoxystyryl]xanthine]	6290 nM	882 ± 239 nM	7.1	
COc1cc(/C=C/c2nc3c(c(=O)n(C)c(=O)n3C)n2CCO)cc(OC)c1OC [Compound 44d]				inhibition at 10 µM [2]: 26 ± 9%; inhibition at 10 µM ([3]; 1 h, at 10^-5, vs [3H]CGS21680, read-out: Percent displacement of specific binding (A2a)): 22%

SMILES	Ki ([2]; Table I, rat A1 receptors)	Ki [3, 5]	A1/A2a ratio ([3]; Table I, ratio of Ki values)	further results
C#CCn1c(/C=C/c2cc(OC)c(OC)c(OC)c2)nc2c1c(=O)n(C)c(=O)n2C [Compound 44e]	4040 nM	525 ± 220 nM	7.7	
CCn1c(=O)c2[nH]c(/C=C/c3cc(OC)c(OC)c(OC)c3)nc2n(CC)c1=O [Compound 45a]	852 ± 277 nM	269 ± 7 nM	3.2	
CCCn1c(=O)c2c(nc(/C=C/c3cccc([N+](=O)[O-])c3)n2C)n(CCC)c1=O [Compound 48]	272 ± 68 nM	56.2 ± 6.8 nM	4.8	
CCCn1c(=O)c2c(nc(/C=C/c3cccc(N)c3)n2C)n(CCC)c1=O [Compound 49]	113 ± 21 nM	18.9 ± 5.3 nM	6.0	Ki [3, 6]: ≤ 50 nM
CCCn1c(=O)c2[nH]c(/C=C/c3cccc(F)c3)nc2n(CCC)c1=O [Compound 50a]	78 ± 17 nM	153 ± 31 nM	0.51	
CCCn1c(=O)c2c(nc(/C=C/c3cccc(F)c3)n2C)n(CCC)c1=O [Compound 50b]	301 ± 64 nM	33 ± 15 nM	9.1	Ki [3, 6]: ≤ 50 nM
CCCn1c(=O)c2[nH]c(/C=C/c3cccc(Cl)c3)nc2n(CCC)c1=O [Compound 51a]	167 ± 39 nM	216 ± 66 nM	0.77	
CCCn1c(=O)c2c(nc(/C=C/c3ccc(OC)c(OC)c3)n2C)n(CCC)c1=O [Compound 52b]	577 ± 42 nM			Ki [4]: 7.8 nM
CCCn1c(=O)c2[nH]c(/C=C/c3cc(OC)cc(OC)c3)nc2n(CCC)c1=O [Compound 53a]	632 ± 152 nM	210 ± 140 nM	3.0	
CCCn1c(=O)c2[nH]c(/C=C/c3cc(F)cc(F)c3)nc2n(CCC)c1=O [Compound 54a]	146 ± 25 nM	346 ± 97 nM	0.42	
CCCn1c(=O)c2c(nc(/C=C/c3cc(F)cc(F)c3)n2C)n(CCC)c1=O [Compound 54b]	382 ± 40 nM	53 ± 15 nM	7.2	Ki [3, 6]: ≤ 50 nM
CCCn1c(=O)c2[nH]c(/C=C/c3ccc(OC)c(OC)c3OC)nc2n(CCC)c1=O [Compound 55a]	97 ± 19 nM	64 ± 15.6 nM	1.5	
CCCn1c(=O)c2c(nc(/C=C/c3ccc(OC)c(OC)c3OC)n2C)n(CCC)c1=O [Compound 55b]	379 ± 128 nM	68.5 ± 12.6 nM	5.5	
CCCn1c(=O)c2[nH]c(/C=C/c3cc(OC)c(OC)cc3OC)nc2n(CCC)c1=O [Compound 56a]	143 ± 19 nM	323 ± 74 nM	0.44	
CCCn1c(=O)c2c(nc(/C=C/c3cc(OC)c(OC)cc3OC)n2C)n(CCC)c1=O [Compound 56b]	689 ± 239 nM	327 ± 52 nM		A1/A2a ratio ([3]; rat, brain membranes): 2.1
Cn1c(=O)c2c(nc(CCc3cccc(N)c3)n2C)n(C)c1=O [Compound 57, 1,3,7-Trimethyl-8-[2-(3-aminophenyl)ethyl]xanthine]				inhibition at 10 µM [2]: 15%; fold less potent at A2 receptors than 22b [3]: ~ 300 fold; Ki [3, 7]: 18000 nM
COc1cccc2cc(-c3nc4c([nH]3)c(=O)n(C)c(=O)n4C)oc12 [Compound 58a]				Ki ([2]; Table IV): 1700 nM; A1/A2 ratio ([3]; Table IV): 0.5; Ki [3, 7]: 3900 nM
Cn1c(=O)c2c(ncn2C)n(C)c1=O [caffeine, 1,3,7-trimethylxanthine, reference compound]				Behavioral stimulation ([1]; mouse, in vivo, ip): +++
CCC/C=C/c1nc2c(c(=O)n(C)c(=O)n2C)n1C [n-propyl(Rβ = H)]				Ki ([2]; Table III): 6000 nM; A1/A2 ratio ([3]; Table III): 3.8; Ki [3, 8]: 1600 nM
C/C(=C\c1nc2c(c(=O)n(C)c(=O)n2C)n1C)c1ccccc1 [phenyl (Rβ = Me)]				Ki ([2]; Table III): 8680 nM; A1/A2 ratio ([3]; Table III): 6; Ki [3, 8]: 1420 nM
